In patent US20100267561A1, “HERBICIDAL PYRIDAZINONE DERIVATIVES” (priority 2007, published 2010):

Columns and labels:
Type in all cases: in vivo
[1] = tested on: canarygrass (Phalaris minor); assay: Test C pre-/postemergence plant response; settings: Preemergence
Source text: (§1) Seeds of plant species selected from annual bluegrass (Poa annua), blackgrass (Alopecurus myosuroides), canola (Brassica rapa), downy bromegrass (Bromus tectorum), green foxtail (Setaria viridis), Italian ryegrass (Lolium multiflorum), canarygrass (Phalaris minor), pigweed (Amaranthus retroflexus), spring barley (Hordeum vulgare), spring wheat (Triticum aestivum), wild mustard (Sinapis arvensis), wild oat (Avena fatua), windgrass (Apera spica-venti), winter barley (Hordeum vulgare), and winter wheat (Triticum aestivum) were planted and treated preemergence with test chemicals formulated in a non-phytotoxic solvent mixture which included a surfactant. At the same time, plants selected from these crop and weed species were treated with postemergence applications of some of the test chemicals formulated in the same manner. Plants ranged in height from 2 to 18 cm (1- to 4-leaf stage) for postemergence treatments.
(§2) Treated plants and controls were maintained in a controlled growth environment for 15 to 25 days after which time all species were compared to controls and visually evaluated. Plant response ratings, summarized in Table C, are based on a scale of 0 to 100 where 0 is no effect and 100 is complete control. A dash (-) response means no test result.

[2] = tested on: blackgrass (Alopecurus myosuroides); assay: Test C pre-/postemergence plant response; settings: Preemergence
Source text: as §1, §2

[3] = tested on: annual bluegrass (Poa annua); assay: Test C pre-/postemergence plant response; settings: Preemergence, scale 0 to 100 (0 no effect, 100 complete control)
Source text: as §1, §2

[4] = tested on: Italian ryegrass (Lolium multiflorum); assay: Test C pre-/postemergence plant response; settings: Preemergence
Source text: as §1, §2

[5] = tested on: wild mustard (Sinapis arvensis); assay: Test C pre-/postemergence plant response; settings: Preemergence
Source text: as §1, §2

[6] = tested on: downy bromegrass (Bromus tectorum); assay: Test C pre-/postemergence plant response; settings: Preemergence
Source text: as §1, §2

[7] = tested on: windgrass (Apera spica-venti); assay: Test C pre-/postemergence plant response; settings: Preemergence
Source text: as §1, §2

[8] = tested on: winter wheat (Triticum aestivum); assay: Test C pre-/postemergence plant response; settings: Preemergence
Source text: as §1, §2

wild oat (Avena fatua) = assay: Test C pre-/postemergence plant response; settings: Preemergence
Source text: as §1, §2

[9] = tested on: green foxtail (Setaria viridis); assay: Test C pre-/postemergence plant response; settings: Preemergence
Source text: as §1, §2

[10] = tested on: spring barley (Hordeum vulgare); assay: Test C pre-/postemergence plant response; settings: Preemergence
Source text: as §1, §2

[11] = tested on: winter barley (Hordeum vulgare); assay: Test C pre-/postemergence plant response; settings: Preemergence
Source text: as §1, §2

[12] = tested on: velvetleaf (Abutilon theophrasti); assay: Test A pre-/postemergence plant response
How it was run: (§3)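 Soil: loam blended with sand. Formulation: non-phytotoxic solvent mixture plus surfactant, applied as preemergence directed soil spray and as postemergence spray. Scoring: visual, 0 no effect to 100 complete control, roughly 10 days post-treatment in greenhouse.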

[13] = tested on: giant foxtail (Setaria faberi); assay: Test A pre-/postemergence plant response
How it was run: as §3

[14] = tested on: large crabgrass (Digitaria sanguinalis); assay: Test A pre-/postemergence plant response
How it was run: as §3

[15] = 8 g ai/ha, scale 0 to 100 (0 no effect, 100 complete control)
[16] = 16 g ai/ha, scale 0 to 100 (0 no effect, 100 complete control)
[17] = 31 g ai/ha, scale 0 to 100 (0 no effect, 100 complete control)
[18] = 62 g ai/ha, scale 0 to 100, 0 no effect, 100 complete control
[19] = Postemergence, 125 g ai/ha, 0 to 100 scale, 0 no effect, 100 complete control
[20] = Postemergence, 500 g ai/ha, 0 to 100 scale, 0 no effect, 100 complete control
[21] = Preemergence, 125 g ai/ha, 0 to 100 scale (0 no effect, 100 complete control)
[22] = Preemergence, 500 g ai/ha, 0 to 100 scale (0 no effect, 100 complete control)

Compound: CCc1cc(-c2ccc(Cl)cc2)nn1-c1c(O)cnn(C)c1=O [Compound 21]
- Plant response rating, Canarygrass [1, 15]: 65
- Plant response rating, Canarygrass [1, 16]: 75
- Plant response rating, Canarygrass [1, 17]: 90
- Plant response rating, Canarygrass [1, 18]: 100
- Plant response rating, Blackgrass [2, 15]: 95
- Plant response rating, Blackgrass [2, 16]: 98
- Plant response rating, Blackgrass [2, 17]: 100
- Plant response rating, Blackgrass [2, 18]: 100
- Plant response rating, Bluegrass ([3]; 8 g ai/ha): 0
- Plant response rating, Bluegrass ([3]; 16 g ai/ha): 0
- Plant response rating, Ryegrass, Italian [4, 15]: 98
- Plant response rating, Ryegrass, Italian [4, 16]: 100
- Plant response rating, Ryegrass, Italian [4, 17]: 100
- Plant response rating, Ryegrass, Italian [4, 18]: 100
- Plant response rating, Mustard, Wild [5, 15]: 0
- Plant response rating, Mustard, Wild [5, 16]: 0
- Plant response rating, Mustard, Wild [5, 17]: 0
- Plant response rating, Mustard, Wild [5, 18]: 0
- Plant response rating, Bromegrass, Downy [6, 15]: 0
- Plant response rating, Bromegrass, Downy [6, 16]: 40
- Plant response rating, Bromegrass, Downy [6, 17]: 75
- Plant response rating, Bromegrass, Downy [6, 18]: 95
- Plant response rating, Windgrass [7, 15]: 100
- Plant response rating, Windgrass [7, 16]: 100
- Plant response rating, Windgrass [7, 17]: 100
- Plant response rating, Windgrass [7, 18]: 100
- Plant response rating, Wheat, Winter [8, 15]: 0
- Plant response rating, Wheat, Winter [8, 16]: 50
- Plant response rating, Wheat, Winter [8, 17]: 60
- Plant response rating, Wheat, Winter [8, 18]: 95
- Plant response rating, Oat, Wild (wild oat (Avena fatua); [15]): 65
- Plant response rating, Oat, Wild (wild oat (Avena fatua); [16]): 75
- Plant response rating, Oat, Wild (wild oat (Avena fatua); [17]): 95
- Plant response rating, Oat, Wild (wild oat (Avena fatua); [18]): 100
- Plant response rating, Foxtail, Green [9, 15]: 50
- Plant response rating, Foxtail, Green [9, 16]: 100
- Plant response rating, Foxtail, Green [9, 17]: 100
- Plant response rating, Foxtail, Green [9, 18]: 100
- Plant response rating, Barley, Spring [10, 15]: 20
- Plant response rating, Barley, Spring [10, 16]: 35
- Plant response rating, Barley, Spring [10, 17]: 60
- Plant response rating, Barley, Spring [10, 18]: 75
- Plant response rating, Barley, Winter [11, 15]: 20
- Plant response rating, Barley, Winter [11, 16]: 40
- Plant response rating, Barley, Winter [11, 17]: 50
- Plant response rating, Barley, Winter [11, 18]: 75
- Plant response rating, Velvetleaf [12, 19]: 0
- Plant response rating, Velvetleaf [12, 20]: 0
- Plant response rating, Velvetleaf [12, 21]: 0
- Plant response rating, Velvetleaf [12, 22]: 0
- Plant response rating, Foxtail, Giant [13, 19]: 100
- Plant response rating, Foxtail, Giant [13, 20]: 100
- Plant response rating, Foxtail, Giant [13, 21]: 100
- Plant response rating, Foxtail, Giant [13, 22]: 100
- Plant response rating, Crabgrass, Large [14, 19]: 90
- Plant response rating, Crabgrass, Large [14, 20]: 100
- Plant response rating, Crabgrass, Large [14, 21]: 100
- Plant response rating, Crabgrass, Large [14, 22]: 100
